Experimental data reported in ChEMBL document CHEMBL3044708, “The trifluoromethyl transformation synthesis, crystal structure and insecticidal activities of novel 2-pyrrolecarboxamide and 2-pyrrolecarboxlate” (2012).

How the values were obtained:
Format in all cases: functional
Tetranychus cinnabarinus [1] = experiment: Acaricidal activity against Tetranychus cinnabarinus (carmine spider mite) larvae assessed as mortality at 200 mg/L
Mythimna separata [2] = experiment: Insecticidal activity against Mythimna separata (Oriental armyworm) assessed as mortality at 200 mg/L
Tetranychus cinnabarinus [3] = experiment: Acaricidal activity against Tetranychus cinnabarinus (carmine spider mite) assessed as mortality at 200 mg/L
Tetranychus cinnabarinus [4] = experiment: Acaricidal activity against Tetranychus cinnabarinus (carmine spider mite) eggs assessed as mortality at 200 mg/L; conditions: Egg
Mythimna separata [5] = experiment: Insecticidal activity against Mythimna separata (Oriental armyworm) assessed as mortality at 50 mg/L
Mythimna separata [6] = experiment: Insecticidal activity against Mythimna separata (Oriental armyworm) assessed as mortality at 100 mg/L
Mythimna separata [7] = experiment: Insecticidal activity against Mythimna separata (Oriental armyworm) assessed as mortality at 25 mg/L
Tetranychus cinnabarinus [8] = experiment: Acaricidal activity against Tetranychus cinnabarinus (carmine spider mite) assessed as mortality at 100 mg/L
Tetranychus cinnabarinus [9] = experiment: Acaricidal activity against Tetranychus cinnabarinus (carmine spider mite) larvae assessed as mortality at 100 mg/L
Tetranychus cinnabarinus [10] = experiment: Acaricidal activity against Tetranychus cinnabarinus (carmine spider mite) eggs assessed as mortality at 100 mg/L; conditions: Egg

Which mortality at 200 µg/mL (Tetranychus cinnabarinus [1]) does the source give for N#Cc1cc(C(=O)Nc2ccc(C(F)(F)F)cc2)[nH]c1-c1ccc(Br)cc1 here?
Its mortality at 200 µg/mL is 0%.

What about the mortality at 200 µg/mL (Mythimna separata [2]) of the same compound?
The mortality at 200 µg/mL was 0%.

And the mortality at 200 µg/mL (Tetranychus cinnabarinus [3])?
The mortality at 200 µg/mL was 0%.

And the mortality at 200 µg/mL (Tetranychus cinnabarinus [4])?
The mortality at 200 µg/mL was 0%.

With N#Cc1cc(C(=O)Nc2ccc(C(F)(F)F)cc2)[nH]c1-c1ccc(Cl)cc1 as the compound, how does the mortality at 200 µg/mL (Tetranychus cinnabarinus [1]) read?
The mortality at 200 µg/mL was 0%.

And the mortality at 200 µg/mL (Mythimna separata [2])?
Its mortality at 200 µg/mL is 0%.

And the mortality at 200 µg/mL (Tetranychus cinnabarinus [3])?
The mortality at 200 µg/mL was 0%.

What about the mortality at 200 µg/mL (Tetranychus cinnabarinus [4]) of the same compound?
Its mortality at 200 µg/mL is 0%.

Which results are given for N#Cc1c(-c2ccc(Cl)cc2)[nH]c(C(=O)Nc2ccc(C(F)(F)F)cc2)c1Br?
mortality at 200 µg/mL (Tetranychus cinnabarinus [1]): 0%; mortality at 200 µg/mL (Mythimna separata [2]): 0%; mortality at 200 µg/mL (Tetranychus cinnabarinus [3]): 0%; mortality at 200 µg/mL (Tetranychus cinnabarinus [4]): 0%

With N#Cc1c(-c2ccc(Cl)cc2)[nH]c(C(=O)NC2CCCCC2)c1Br as the compound, how does the mortality at 200 µg/mL (Tetranychus cinnabarinus [1]) read?
Its mortality at 200 µg/mL is 0%.

And the mortality at 200 µg/mL (Mythimna separata [2])?
Its mortality at 200 µg/mL is 80%.

And the mortality at 200 µg/mL (Tetranychus cinnabarinus [3])?
Its mortality at 200 µg/mL is 0%.

And the mortality at 200 µg/mL (Tetranychus cinnabarinus [4])?
Its mortality at 200 µg/mL is 0%.

Which results are given for CCN(CC)C(=O)c1[nH]c(-c2ccc(Cl)cc2)c(C#N)c1Br?
mortality at 200 µg/mL (Tetranychus cinnabarinus [1]): 0%; mortality at 200 µg/mL (Mythimna separata [2]): 0%; mortality at 200 µg/mL (Tetranychus cinnabarinus [3]): 0%; mortality at 200 µg/mL (Tetranychus cinnabarinus [4]): 0%

How did the mortality at 200 µg/mL (Tetranychus cinnabarinus [1]) turn out when N#Cc1c(-c2ccc(Cl)cc2)[nH]c(C(=O)NCc2ccccc2)c1Br was run?
Its mortality at 200 µg/mL is 0%.

What about the mortality at 200 µg/mL (Mythimna separata [2]) of the same compound?
The mortality at 200 µg/mL was 0%.

And the mortality at 200 µg/mL (Tetranychus cinnabarinus [3])?
Its mortality at 200 µg/mL is 0%.

And the mortality at 200 µg/mL (Tetranychus cinnabarinus [4])?
The mortality at 200 µg/mL was 0%.

How did the mortality at 200 µg/mL (Tetranychus cinnabarinus [1]) turn out when COC(=O)c1[nH]c(-c2ccc(Cl)cc2)c(C#N)c1Br was run?
Its mortality at 200 µg/mL is 40%.

What about the mortality at 50 µg/mL (Mythimna separata [5]) of the same compound?
Its mortality at 50 µg/mL is 40%.

And the mortality at 100 µg/mL (Mythimna separata [6])?
The mortality at 100 µg/mL was 100%.

What about the mortality at 200 µg/mL (Mythimna separata [2]) of the same compound?
The mortality at 200 µg/mL was 100%.

What about the mortality at 200 µg/mL (Tetranychus cinnabarinus [3]) of the same compound?
Its mortality at 200 µg/mL is 60%.

And the mortality at 25 µg/mL (Mythimna separata [7])?
The mortality at 25 µg/mL was 0%.

What about the mortality at 200 µg/mL (Tetranychus cinnabarinus [4]) of the same compound?
Its mortality at 200 µg/mL is 0%.

CCOC(=O)c1[nH]c(-c2ccc(Cl)cc2)c(C#N)c1Br was tested. Which mortality at 200 µg/mL (Tetranychus cinnabarinus [1]) did it give?
The mortality at 200 µg/mL was 76%.

What about the mortality at 50 µg/mL (Mythimna separata [5]) of the same compound?
Its mortality at 50 µg/mL is 60%.

What about the mortality at 100 µg/mL (Mythimna separata [6]) of the same compound?
Its mortality at 100 µg/mL is 100%.

What about the mortality at 200 µg/mL (Mythimna separata [2]) of the same compound?
Its mortality at 200 µg/mL is 100%.

What about the mortality at 100 µg/mL (Tetranychus cinnabarinus [8]) of the same compound?
The mortality at 100 µg/mL was 40%.

And the mortality at 200 µg/mL (Tetranychus cinnabarinus [3])?
Its mortality at 200 µg/mL is 78%.

What about the mortality at 25 µg/mL (Mythimna separata [7]) of the same compound?
The mortality at 25 µg/mL was 0%.

And the mortality at 100 µg/mL (Tetranychus cinnabarinus [9])?
Its mortality at 100 µg/mL is 52%.

What about the mortality at 100 µg/mL (Tetranychus cinnabarinus [10]) of the same compound?
Its mortality at 100 µg/mL is 54%.

What about the mortality at 200 µg/mL (Tetranychus cinnabarinus [4]) of the same compound?
Its mortality at 200 µg/mL is 81%.

What does the source list for N#Cc1c(-c2ccc(Cl)cc2)[nH]c(C(=O)OCc2ccccc2)c1Br?
mortality at 200 µg/mL (Tetranychus cinnabarinus [1]): 0%; mortality at 50 µg/mL (Mythimna separata [5]): 100%; mortality at 100 µg/mL (Mythimna separata [6]): 100%; mortality at 200 µg/mL (Mythimna separata [2]): 100%; mortality at 200 µg/mL (Tetranychus cinnabarinus [3]): 0%; mortality at 25 µg/mL (Mythimna separata [7]): 0%; mortality at 200 µg/mL (Tetranychus cinnabarinus [4]): 0%

Which results are given for N#Cc1c(-c2ccc(Cl)cc2)[nH]c(C(F)(F)F)c1Br?
mortality at 200 µg/mL (Tetranychus cinnabarinus [1]): 100%; mortality at 50 µg/mL (Mythimna separata [5]): 100%; mortality at 100 µg/mL (Mythimna separata [6]): 100%; mortality at 200 µg/mL (Mythimna separata [2]): 100%; mortality at 100 µg/mL (Tetranychus cinnabarinus [8]): 100%; mortality at 200 µg/mL (Tetranychus cinnabarinus [3]): 100%; mortality at 25 µg/mL (Mythimna separata [7]): 100%; mortality at 100 µg/mL (Tetranychus cinnabarinus [9]): 100%; mortality at 100 µg/mL (Tetranychus cinnabarinus [10]): 100%; mortality at 200 µg/mL (Tetranychus cinnabarinus [4]): 100%

With CCOCn1c(-c2ccc(Cl)cc2)c(C#N)c(Br)c1C(F)(F)F [CHLORFENAPYR] as the compound, how does the mortality at 200 µg/mL (Tetranychus cinnabarinus [1]) read?
The mortality at 200 µg/mL was 100%.

And the mortality at 50 µg/mL (Mythimna separata [5])?
Its mortality at 50 µg/mL is 100%.

What about the mortality at 100 µg/mL (Mythimna separata [6]) of the same compound?
Its mortality at 100 µg/mL is 100%.

And the mortality at 200 µg/mL (Mythimna separata [2])?
Its mortality at 200 µg/mL is 100%.

And the mortality at 100 µg/mL (Tetranychus cinnabarinus [8])?
The mortality at 100 µg/mL was 100%.

And the mortality at 200 µg/mL (Tetranychus cinnabarinus [3])?
The mortality at 200 µg/mL was 100%.

And the mortality at 25 µg/mL (Mythimna separata [7])?
The mortality at 25 µg/mL was 100%.

And the mortality at 100 µg/mL (Tetranychus cinnabarinus [9])?
The mortality at 100 µg/mL was 100%.

And the mortality at 100 µg/mL (Tetranychus cinnabarinus [10])?
The mortality at 100 µg/mL was 100%.

What about the mortality at 200 µg/mL (Tetranychus cinnabarinus [4]) of the same compound?
Its mortality at 200 µg/mL is 100%.
